Measured values as given in ChEMBL document CHEMBL4138123, “Design, synthesis and biological evaluation of novel pyrazolochalcones as potential modulators of PI3K/Akt/mTOR pathway and inducers of apoptosis in breast cancer cells” (Eur J Med Chem, 2017).

Tests used:
Assay type in all cases: functional
ACHN [1] = test: Cytotoxicity against human ACHN cells assessed as growth inhibition after 48 hrs by sulforhodamine B assay
M14 [2] = test: Cytotoxicity against human M14 cells assessed as cell growth at 0.01 uM after 48 hrs by sulforhodamine B assay relative to control; conditions: M14, 48 h, read-out: Activity
COLO 205 [3] = test: Cytotoxicity against human COLO205 cells assessed as cell growth at 100 uM after 48 hrs by sulforhodamine B assay relative to control; conditions: COLO 205, 48 h, read-out: Activity
UACC-62 = test: Cytotoxicity against human UACC62 cells assessed as cell growth at 0.01 uM after 48 hrs by sulforhodamine B assay relative to control; conditions: UACC-62, 48 h, read-out: Activity
TK-10 [4] = test: Cytotoxicity against human TK10 cells assessed as cell growth at 100 uM after 48 hrs by sulforhodamine B assay relative to control; conditions: TK-10, 48 h, read-out: Activity
OVCAR-4 [5] = test: Cytotoxicity against human OVCAR4 cells assessed as cell growth at 1 uM after 48 hrs by sulforhodamine B assay relative to control; conditions: OVCAR-4, 48 h, read-out: Activity
SF-539 = test: Cytotoxicity against human SF539 cells assessed as cell growth at 0.01 uM after 48 hrs by sulforhodamine B assay relative to control; conditions: SF-539, 48 h, read-out: Activity
COLO 205 [6] = test: Cytotoxicity against human COLO205 cells assessed as cell growth at 0.01 uM after 48 hrs by sulforhodamine B assay relative to control; conditions: COLO 205, 48 h, read-out: Activity
786-0 [7] = test: Cytotoxicity against human 786-0 cells assessed as cell growth at 0.01 uM after 48 hrs by sulforhodamine B assay relative to control; conditions: 786-0, 48 h, read-out: Activity
MCF7 = test: Cytotoxicity against human MCF7 cells assessed as cell growth at 0.1 uM after 48 hrs by sulforhodamine B assay relative to control; conditions: MCF7, 48 h, read-out: Activity
SR = test: Cytotoxicity against human SR cells assessed as cell growth at 10 uM after 48 hrs by sulforhodamine B assay relative to control; conditions: read-out: Activity
SK-MEL-28 [8] = test: Cytotoxicity against human SK-MEL-28 cells assessed as cell growth at 0.1 uM after 48 hrs by sulforhodamine B assay relative to control; conditions: SK-MEL-28, 48 h, read-out: Activity
KM12 = test: Cytotoxicity against human KM12 cells assessed as cell growth at 0.1 uM after 48 hrs by sulforhodamine B assay relative to control; conditions: KM12, 48 h, read-out: Activity
IGROV-1 = test: Cytotoxicity against human IGROV1 cells assessed as growth inhibition after 48 hrs by sulforhodamine B assay; conditions: IGROV-1, 48 h
HCC 2998 = test: Cytotoxicity against human HCC2998 cells assessed as cell growth at 10 uM after 48 hrs by sulforhodamine B assay relative to control; conditions: HCC 2998, 48 h, read-out: Activity
HT-29 = test: Cytotoxicity against human HT-29 cells assessed as cell growth at 0.1 uM after 48 hrs by sulforhodamine B assay relative to control; conditions: HT-29, 48 h, read-out: Activity
DU-145 = test: Cytotoxicity against human DU145 cells assessed as growth inhibition after 48 hrs by sulforhodamine B assay; conditions: DU-145, 48 h
SK-MEL-5 [9] = test: Cytotoxicity against human SK-MEL-5 cells assessed as cell growth at 0.01 uM after 48 hrs by sulforhodamine B assay relative to control; conditions: SK-MEL-5, 48 h, read-out: Activity
PC-3 = test: Cytotoxicity against human PC3 cells assessed as cell growth at 0.01 uM after 48 hrs by sulforhodamine B assay relative to control; conditions: PC-3, 48 h, read-out: Activity
OVCAR-8 = test: Cytotoxicity against human OVCAR8 cells assessed as cell growth at 10 uM after 48 hrs by sulforhodamine B assay relative to control; conditions: OVCAR-8, 48 h, read-out: Activity
TK-10 [10] = test: Cytotoxicity against human TK10 cells assessed as cell growth at 0.1 uM after 48 hrs by sulforhodamine B assay relative to control; conditions: TK-10, 48 h, read-out: Activity
ACHN [11] = test: Cytotoxicity against human ACHN cells assessed as cell growth at 1 uM after 48 hrs by sulforhodamine B assay relative to control; conditions: read-out: Activity
OVCAR-3 [12] = test: Cytotoxicity against human OVCAR3 cells assessed as cell growth at 100 uM after 48 hrs by sulforhodamine B assay relative to control; conditions: OVCAR-3, 48 h, read-out: Activity
A549 = test: Cytotoxicity against human A549/ATCC cells assessed as cell growth at 1 uM after 48 hrs by sulforhodamine B assay relative to control; conditions: A549, 48 h, read-out: Activity
Hs-578T [13] = test: Cytotoxicity against human Hs 578T cells assessed as cell growth at 0.01 uM after 48 hrs by sulforhodamine B assay relative to control; conditions: read-out: Activity
786-0 [14] = test: Cytotoxicity against human 786-0 cells assessed as cell growth at 100 uM after 48 hrs by sulforhodamine B assay relative to control; conditions: 786-0, 48 h, read-out: Activity
SK-MEL-28 [15] = test: Cytotoxicity against human SK-MEL-28 cells assessed as growth inhibition after 48 hrs by sulforhodamine B assay; conditions: SK-MEL-28, 48 h
OVCAR-5 [16] = test: Cytotoxicity against human OVCAR5 cells assessed as cell growth at 10 uM after 48 hrs by sulforhodamine B assay relative to control; conditions: OVCAR-5, 48 h, read-out: Activity
SK-MEL-5 [17] = test: Cytotoxicity against human SK-MEL-5 cells assessed as cell growth at 0.1 uM after 48 hrs by sulforhodamine B assay relative to control; conditions: SK-MEL-5, 48 h, read-out: Activity
MOLT-4 [18] = test: Cytotoxicity against human MOLT4 cells assessed as cell growth at 0.01 uM after 48 hrs by sulforhodamine B assay relative to control; conditions: MOLT-4, 48 h, read-out: Activity
OVCAR-3 [19] = test: Cytotoxicity against human OVCAR3 cells assessed as cell growth at 10 uM after 48 hrs by sulforhodamine B assay relative to control; conditions: OVCAR-3, 48 h, read-out: Activity
Hs-578T [20] = test: Cytotoxicity against human Hs 578T cells assessed as cell growth at 10 uM after 48 hrs by sulforhodamine B assay relative to control; conditions: read-out: Activity
T47D = test: Cytotoxicity against human T47D cells assessed as cell growth at 100 uM after 48 hrs by sulforhodamine B assay relative to control; conditions: read-out: Activity
M14 [21] = test: Cytotoxicity against human M14 cells assessed as cell growth at 0.1 uM after 48 hrs by sulforhodamine B assay relative to control; conditions: M14, 48 h, read-out: Activity
OVCAR-5 [22] = test: Cytotoxicity against human OVCAR5 cells assessed as growth inhibition after 48 hrs by sulforhodamine B assay; conditions: OVCAR-5, 48 h
OVCAR-4 [23] = test: Cytotoxicity against human OVCAR4 cells assessed as cell growth at 0.1 uM after 48 hrs by sulforhodamine B assay relative to control; conditions: OVCAR-4, 48 h, read-out: Activity
MOLT-4 [24] = test: Cytotoxicity against human MOLT4 cells assessed as cell growth at 10 uM after 48 hrs by sulforhodamine B assay relative to control; conditions: MOLT-4, 48 h, read-out: Activity

In the case of `COc1ccc(C(=O)/C=C/c2cc(-c3ccc4c(c3)OCO4)n[nH]2)cc1OC`, the LC50 (ACHN [1]) is reported as > 100 µM, the TGI (ACHN [1]) is reported as 56.5 µM and the growth at 0.01 µM (M14 [2]) is reported as 98%. For the same molecule, the growth at 100 µM (COLO 205 [3]) was -83%, the growth at 0.01 µM (UACC-62) was 98% and the growth at 100 µM (TK-10 [4]) was -58%. For the same molecule, the growth at 1 µM (OVCAR-4 [5]) was 65%, the growth at 0.01 µM (SF-539) was 98% and the growth at 0.01 µM (COLO 205 [6]) was 102%. For the same molecule, the growth at 0.01 µM (786-0 [7]) was 96%, the growth at 0.1 µM (MCF7) was 94% and the growth at 10 µM (SR) was -13%. For the same molecule, the growth at 0.1 µM (SK-MEL-28 [8]) was 104%, the growth at 0.1 µM (KM12) was 99% and the LC50 (IGROV-1) was 68 µM. The TGI (IGROV-1) was 9.2 µM, the growth at 10 µM (HCC 2998) was 27% and the growth at 0.1 µM (HT-29) was 92%. It also gave a GI50 (DU-145) of 1.86 µM, a TGI (DU-145) of 4.27 µM and a CC50 (DU-145; read-out: LC50 (the source's name)) of 9.8 µM. It also gave a growth at 0.01 µM (SK-MEL-5 [9]) of 96%, a growth at 0.01 µM (PC-3) of 99% and a growth at 10 µM (OVCAR-8) of -27%. For the same molecule, the growth at 0.1 µM (TK-10 [10]) was 92%, the growth at 1 µM (ACHN [11]) was 94% and the growth at 100 µM (OVCAR-3 [12]) was -67%. It also gave a growth at 1 µM (A549) of 85%, a growth at 0.01 µM (Hs-578T [13]) of 96% and a growth at 100 µM (786-0 [14]) of -83%. For the same molecule, the LC50 (SK-MEL-28 [15]) was 48.6 µM, the TGI (SK-MEL-28 [15]) was 19.3 µM and the growth at 10 µM (OVCAR-5 [16]) was 17%. The growth at 0.1 µM (SK-MEL-5 [17]) was 97%, the growth at 0.01 µM (MOLT-4 [18]) was 97% and the growth at 10 µM (OVCAR-3 [19]) was -47%. For the same molecule, the growth at 10 µM (Hs-578T [20]) was -9%, the growth at 100 µM (T47D) was -31% and the growth at 0.1 µM (M14 [21]) was 98%. The LC50 (OVCAR-5 [22]) was > 100 µM, the TGI (OVCAR-5 [22]) was 23.2 µM and the growth at 0.1 µM (OVCAR-4 [23]) was 94%.

For `COc1ccc(-c2cc(/C=C/C(=O)c3ccc4c(c3)OCO4)[nH]n2)cc1OC`, the GI50 (ACHN [1]) was 1.59 µM, the GI50 (IGROV-1) was 3.13 µM and the GI50 (DU-145) was 1.64 µM. The GI50 (SK-MEL-28 [15]) was 1.82 µM and the GI50 (OVCAR-5 [22]) was 1.76 µM.

`COc1cc(-c2cc(/C=C/C(=O)c3ccc(Cl)c(Cl)c3)[nH]n2)cc(OC)c1OC` was tested, and the LC50 (ACHN [1]) was > 100 µM, the TGI (ACHN [1]) was > 100 µM and the growth at 0.01 µM (M14 [2]) was 98%. It also gave a growth at 100 µM (COLO 205 [3]) of -42%, a growth at 0.01 µM (UACC-62) of 97% and a growth at 100 µM (TK-10 [4]) of -27%. It also gave a growth at 1 µM (OVCAR-4 [5]) of 107%, a growth at 0.01 µM (SF-539) of 93% and a growth at 0.01 µM (COLO 205 [6]) of 103%. For the same molecule, the growth at 0.01 µM (786-0 [7]) was 95%, the growth at 0.1 µM (MCF7) was 105% and the growth at 10 µM (SR) was 8%. For the same molecule, the growth at 0.1 µM (SK-MEL-28 [8]) was 114%, the growth at 0.1 µM (KM12) was 93% and the growth at 10 µM (MOLT-4 [24]) was 24%. For the same molecule, the LC50 (IGROV-1) was > 100 µM, the TGI (IGROV-1) was > 100 µM and the growth at 10 µM (HCC 2998) was 49%. For the same molecule, the growth at 0.1 µM (HT-29) was 98%, the growth at 0.01 µM (SK-MEL-5 [9]) was 98% and the growth at 0.01 µM (PC-3) was 95%. For the same molecule, the growth at 10 µM (OVCAR-8) was 40%, the growth at 0.1 µM (TK-10 [10]) was 91% and the growth at 1 µM (ACHN [11]) was 101%. For the same molecule, the growth at 100 µM (OVCAR-3 [12]) was -30%, the growth at 1 µM (A549) was 93% and the growth at 0.01 µM (Hs-578T [13]) was 98%. The growth at 100 µM (786-0 [14]) was -10%, the LC50 (SK-MEL-28 [15]) was > 100 µM and the TGI (SK-MEL-28 [15]) was 66 µM. It also gave a growth at 10 µM (OVCAR-5 [16]) of 65%, a growth at 0.1 µM (SK-MEL-5 [17]) of 97% and a growth at 0.01 µM (MOLT-4 [18]) of 98%. It also gave a growth at 10 µM (OVCAR-3 [19]) of 40%, a growth at 10 µM (Hs-578T [20]) of 63% and a growth at 100 µM (T47D) of -36%. For the same molecule, the growth at 0.1 µM (M14 [21]) was 94%, the LC50 (OVCAR-5 [22]) was > 100 µM and the TGI (OVCAR-5 [22]) was > 100 µM. For the same molecule, the growth at 0.1 µM (OVCAR-4 [23]) was 106%.
